The target in data set [1] is T1, CRBN-ASS1 interaction (Homo sapiens, UniProt Q96SW2).
T1 construct: expressed in transfected cells; host or cells: HEK293T
The data set is described as follows: Co-immunoprecipitation of Flag-ASS1 and HA-CRBN in HEK293T cells. In kind it is cell-based. The following applies: 1 μM and 3 μM, 24 hours. The source says: FIGS. 3A-B Ligand-induced CRBN-ASS1 interaction in living cells—as assessed by co-immunoprecipitation analysis. In this study we examined the ability of Flag-tagged ASS1 (or Flag tagged gp130-ASS1 fusion protein, as identified in the assay described in FIG. 1) and HA-tagged CRBN to interact in living cells upon transfection and expression of each construct in HEK293T cells—in the presence or absence of the CRBN IMiD ligand CC220. Ability of HA-tagged CRBN to interact in response to CC220 with the known CRBN neosubstrate IKZF3 was also examined (with IKZF3 expressed as a Flag-tagged IKZF3 fusion protein). […] Western analysis was performed with an anti-HA antibody to determine extent of immunoprecipitated CRBN in each sample (expected to vary in dependence of CC220 exposure) and an anti-Flag antibody to determine extent of immunoprecipitated Flag-ASS1, Flag-gp130-ASS1 or Flag-IKZF3 in each sample (which would be expected to be the same). […]
In this study we assessed via co-immunoprecipitation of protein complexes the ability of the CRBN ligand CC220 to induce an interaction with ASS1 when expressed in HEK293 cells. […] FLAG-tagged ASS1 was detected using an anti-FLAG Ab (SIGMA) respectively (FIG. 3A, lower panel). […]

Data set [2] deals with T1, CRBN-ASS1 interaction. The data set can be described thus: MAPPIT cell microarray screen of ORF library for ligand-induced CRBN neosubstrates. Format: cell-based. The following applies: HEK293T cells, CC-220 at 10 μM, fluorescence reporter read 48 hours later.
A further data set addresses ASS1 (Homo sapiens, UniProt P00966+Q96SW2). The data set is described as follows: ASS1 degradation by Western blot in HEK293T cells co-transfected with FLAG-ASS1 and HA-CRBN. In kind it is cell-based. As to conditions: 0.3-30 μM, 24 hours. On the procedure:
FIG. 4 Ligand-induced recruitment of ASS1 to CRBN is associated with degradation of ASS1 in living cells. In this study we examined whether ligand-induced recruitment of ASS1 to CRBN could lead to subsequent ASS1 degradation (as triggered by interaction with the CRBN E3 ligase). HEK293 cells were co-transfected with cDNA constructs encoding Flag-tagged ASS1 and HA-tagged CRBN and exposed to increasing concentration of CC220 for 24 hours. Samples were generated for Western blot analysis to determine steady state levels of ASS1 across the different experimental conditions, assessed using and anti-Flag antibody. As shown, loss of ASS1 expression (but not actin control protein expression) was observed specifically in response to CC220 exposure, and in a dose-dependent manner.
In this study we examined whether CC220 CRBN-ligand-induced recruitment of ASS1 to CRBN could lead to subsequent ASS1 degradation (as triggered by interaction with the CRBN E3 ligase). For this analysis, cells were transfected with FLAG-tagged ASS1 and HA-tagged CRBN encoding constructs, and any change in steady state levels of ASS1 in response to incubation of cells with CC220 for a specified time was assessed by Western blot analysis. […] Next, cells were lysed and a fraction of the lysate was analyzed via SDS-PAGE and Western Blot analysis with an anti-FLAG antibody (Sigma). […]
On the technique in general: A western blot detects proteins with antibodies after separation by electrophoresis.

A further data set deals with T2, CRBN (Homo sapiens, UniProt Q96SW2).
T2 construct: expressed in transfected cells; host or cells: HEK293T
The data set can be described thus: MAPPIT-like ligand competition assay for CRBN binding in HEK293T cells (trimethoprim-lenalidomide hybrid ligand, luciferase reporter). In kind it is cell-based. As to conditions: competition for binding to CRBN. (In a reporter assay the amount or activity of a reporter protein is the signal.)

The conditions of data set [3]: patients with AL amyloidosis during lenalidomide treatment; cited from earlier work.

Consider `O=C1CC[C@H](N2Cc3c(OCc4ccc(CN5CCOCC5)cc4)cccc3C2=O)C(=O)N1` [CC-220], for which the “recruitment of ASS1 into CRBN complex by co-immunoprecipitation (in words)” value on CRBN-ASS1 interaction [1] is “specifically induces the recruitment of ASS1 into a CRBN-CC220 complex”. Besides, the “ligand-induced ASS1 interaction with CRBN in cell microarray screen (in words)” value at CRBN-ASS1 interaction [2] is “identified Argininosuccinate Synthase 1 (ASS1) as a novel CC220-induced CRBN neosubstrate”. On ASS1, the “ASS1 steady state levels (Western blot, in words)” value was “decrease in a dose responsive manner”. The “inhibition of hybrid-ligand induced luciferase reporter activation (in words)” value at CRBN was “specifically inhibit hybrid-ligand induced luciferase reporter activation in a dose dependent manner”.

For `Nc1cccc2c1CN(C1CCC(=O)NC1=O)C2=O` (stereo not drawn) [LEN, lenalidomide], in data set [3], the “patients showing worsening of kidney function” value is on record as 66% and the “patients with severe kidney dysfunction” value is reported as 32%.

These data come from patent US12546776B2, “Modulation of protein degradation” (Orionis Biosciences, Inc., priority 2019, dated 2026).
